Tested on: 1586 Head and Neck Cancer cell line
Assay: MTT assay, Bouvardin with ionizing radiation, 1586 (pre-treated)
Assay type: cell-based, human
Conditions: 1586 cells
Protocol: “Combination Index” computation. Combination Indices were calculated using CalcuSyn software (Biosoft), which uses the method of Chou and Talalay. This method first computes drug-induced effect using the Hill Equation: where E is the measured effect; C is the drug concentration; Emax is the full range of drug effect, usually at or near 100%; IC50 is the drug concentration producing the median effect of 50%; and n is the curve shape parameter describing the steepness of the concentration-effect relationship. The Chou and Talalay method then linearizes the Hill Equation by logarithmic transformation as: where fu is the fraction of cells left unaffected after drug exposure, fa is the fraction of cells affected by the exposure, C is the drug concentration used, Cm is the concentration to achieve the median effect, and n is the curve shape parameter. Cm and n are equivalent to IC50 and n, respectively, in the Hill Equation. The values of n (obtained from the slope), nlog(Cm) (obtained from the absolute value of the intercept), and, therefore, Cm are obtained by plotting log(fu−1−1) versus log(C). These numbers are then used to compute the Combination Index (CI) according to the formula: CI=(D)1/(Dx)1+(D)2/(Dx)2 (26). (Dx)1 and (Dx)2 are the doses required to achieve a given effect level for each treatment, i.e. a specified value of Fraction Affected or Fa. (D)1 and (D)2 are the doses of each treatment in a given combination which gives the same Fa.
The growth inhibitory effects of Bouvardin with ionizing radiation (IR) were evaluated using a modified tetrazolium salt (MTT) assay. In the MTT assay, 1,000 to 2,000 viable cells were plated in 100 uL of growth medium in 96-well plates (Corning, Ithaca, N.Y.). Following an overnight incubation, drug was added in varying concentrations and the plates were irradiated on the same day (co-treatment) or 24 hr later (pre-treatment) and incubated for 6 to 7 days. The tetrazolium salt was added at a concentration of 0.4 mg/mL to each well following the 6- to 7-day treatment. The plates were incubated with the salt for 4 hours at 37° C. At 4 hours, the medium was aspirated off, leaving the dark blue formazan product at the bottom of the wells. The reduced MTT product was solubilized by adding […] of 0.2 N HCl in 75% isopropanol, 23% MilliQ water to each well. Thorough mixing was done using a Titertek multichannel pipetman. The absorbency of each well was measured using an automated plate reader (Molecular Devices, Sunnyvale, Calif.). All experiments were done in triplicate.
MTT assays were used to determine the effect of Bouvardin (concentrations in uM) in combination with ionizing radiation (in Gy, X-axis). FIG. 14 depicts CI values for Bouvardin and radiation on 3 cell lines. Combination Index data from 3 different Head and Neck Cancer cell lines are shown. Black dashed lines represent a CI value of 1. CI values below 1 indicate synergy. 1586 and UM-SCC19 were pre-treated whereas HN31 was treated on the same day.

Compound: COc1ccc(C[C@H]2C(=O)N[C@H](C)C(=O)N(C)[C@@H]3C(=O)N(C)[C@@H](Cc4ccc(O)c(c4)Oc4ccc(cc4)[C@H]3O)C(=O)N[C@@H](C)C(=O)N[C@H](C)C(=O)N2C)cc1 (stereo in doubt) [Bouvardin, bouvardin]
- Combination Index (Bouvardin 0.001 uM + 1 Gy IR): 1.553
- Fraction Affected (Bouvardin 0.001 uM + 1 Gy IR): 0.254
- Combination Index (Bouvardin 0.001 uM + 2 Gy IR): 0.903
- Fraction Affected (Bouvardin 0.001 uM + 2 Gy IR): 0.23
- Combination Index (Bouvardin 0.001 uM + 4 Gy IR): 1.112
- Fraction Affected (Bouvardin 0.001 uM + 4 Gy IR): 0.503
- Combination Index (Bouvardin 0.003 uM + 1 Gy IR): 1.898
- Fraction Affected (Bouvardin 0.003 uM + 1 Gy IR): 0.264
- Combination Index (Bouvardin 0.003 uM + 2 Gy IR): 1.383
- Fraction Affected (Bouvardin 0.003 uM + 2 Gy IR): 0.303
- Combination Index (Bouvardin 0.003 uM + 4 Gy IR): 0.753
- Fraction Affected (Bouvardin 0.003 uM + 4 Gy IR): 0.51
- Combination Index (Bouvardin 0.006 uM + 1 Gy IR): 1.626
- Fraction Affected (Bouvardin 0.006 uM + 1 Gy IR): 0.301
- Combination Index (Bouvardin 0.006 uM + 2 Gy IR): 1.285
- Fraction Affected (Bouvardin 0.006 uM + 2 Gy IR): 0.371
- Combination Index (Bouvardin 0.006 uM + 4 Gy IR): 0.732
- Fraction Affected (Bouvardin 0.006 uM + 4 Gy IR): 0.634
- Combination Index (Bouvardin 0.01 uM + 1 Gy IR): 0.433
- Fraction Affected (Bouvardin 0.01 uM + 1 Gy IR): 0.45
- Combination Index (Bouvardin 0.01 uM + 2 Gy IR): 1.482
- Fraction Affected (Bouvardin 0.01 uM + 2 Gy IR): 0.518
- Combination Index (Bouvardin 0.01 uM + 4 Gy IR): 1.348
- Fraction Affected (Bouvardin 0.01 uM + 4 Gy IR): 0.604
- Combination Index (Bouvardin 0.03 uM + 1 Gy IR): 1.211
- Fraction Affected (Bouvardin 0.03 uM + 1 Gy IR): 0.537
- Combination Index (Bouvardin 0.03 uM + 2 Gy IR): 0.841
- Fraction Affected (Bouvardin 0.03 uM + 2 Gy IR): 0.628
- Combination Index (Bouvardin 0.03 uM + 4 Gy IR): 1.284
- Fraction Affected (Bouvardin 0.03 uM + 4 Gy IR): 0.624
- Combination Index (Bouvardin 0.06 uM + 1 Gy IR): 0.898
- Fraction Affected (Bouvardin 0.06 uM + 1 Gy IR): 0.584
- Combination Index (Bouvardin 0.06 uM + 2 Gy IR): 0.962
- Fraction Affected (Bouvardin 0.06 uM + 2 Gy IR): 0.677
- Combination Index (Bouvardin 0.06 uM + 4 Gy IR): 1.284
- Fraction Affected (Bouvardin 0.06 uM + 4 Gy IR): 0.813
- Combination Index (Bouvardin 0.1 uM + 1 Gy IR): 1.815
- Fraction Affected (Bouvardin 0.1 uM + 1 Gy IR): 0.607
- Combination Index (Bouvardin 0.1 uM + 2 Gy IR): 3.214
- Fraction Affected (Bouvardin 0.1 uM + 2 Gy IR): 0.68
- Combination Index (Bouvardin 0.1 uM + 4 Gy IR): 2.639
- Fraction Affected (Bouvardin 0.1 uM + 4 Gy IR): 0.712
- Combination Index (Bouvardin 0.3 uM + 1 Gy IR): 2.656
- Fraction Affected (Bouvardin 0.3 uM + 1 Gy IR): 0.682
- Combination Index (Bouvardin 0.3 uM + 2 Gy IR): 2.382
- Fraction Affected (Bouvardin 0.3 uM + 2 Gy IR): 0.731
- Combination Index (Bouvardin 0.3 uM + 4 Gy IR): 3.756
- Fraction Affected (Bouvardin 0.3 uM + 4 Gy IR): 0.708
- Combination Index (Bouvardin 0.6 uM + 1 Gy IR): 4.194
- Fraction Affected (Bouvardin 0.6 uM + 1 Gy IR): 0.688
- Combination Index (Bouvardin 0.6 uM + 2 Gy IR): 4.765
- Fraction Affected (Bouvardin 0.6 uM + 2 Gy IR): 0.743
- Combination Index (Bouvardin 0.6 uM + 4 Gy IR): 4.11
- Fraction Affected (Bouvardin 0.6 uM + 4 Gy IR): 0.745
- Combination Index (Bouvardin 1 uM + 1 Gy IR): 1.553
- Fraction Affected (Bouvardin 1 uM + 1 Gy IR): 0.254
- Combination Index (Bouvardin 1 uM + 2 Gy IR): 0.903
- Fraction Affected (Bouvardin 1 uM + 2 Gy IR): 0.23
- Combination Index (Bouvardin 1 uM + 4 Gy IR): 1.112
- Fraction Affected (Bouvardin 1 uM + 4 Gy IR): 0.503

— patent US20150343016A1, “CHEMICAL ENTITIES AND THERAPEUTIC USES THEREOF” (The Regents of the University of Colorado, a body corporate, priority 2010, published 2015)
